Measurements from patent publication US7855200B2, “Method for treatment of gastric ulcers and ulcers induced by aspirin” (Council of Scientific and Industrial Research, priority 2006, dated 2010).
Values joined by “and” are separate entries in the source; they are usually repeats but may differ in a detail not shown here. Identical values can stand only once.

How the values were obtained:
Assay type in all cases: in vivo, albino rats
[1] = test system: acetyl salicylic acid induced gastric lesions; test: Acetyl salicylic acid (aspirin) induced gastric ulcer; parameters: Ulcer index Mean(SE): scale not given here; conditions: rats, 25 mg/kg per orally daily for five days, aspirin 200 mg/kg; for inhibition at 25 mg/kg: Rattus norvegicus, po, 120 h
Experimental: Stress induced gastric ulceration The commercially available drug ranitidine (sigma), Omeprazole (sigma) and sucralfate (Merck) were used as reference standard in experimental models. The Tween-80 (SD fine chemicals) was used as vehicle for the administration of the drug, which is used as control. Antiulcer activity of the compounds under taken was studied. The animals were divided into 20 groups of 6 animals each. Group 1 received the vehicle Tween 80 (1%, 1 ml) which served as the control. Group 2 received ranitidine at a dose of 50-mg/kg body weight, which served as standard for comparison. Group 3 to 20 at a dose of 25 mg/kg body weight. Rats were administered per orally with a daily dose of the compounds and the drug ranitidine for a period of five days and then fasted for 24 hours. The […] acetyl salicylic acid (aspirin) at a dose of 200 mg/kg body weight was administered as a suspension in tween-80 (1%), 30 min after the drug administration each day. All drugs were administered orally on the 6th day after the last administration of the drugs and the ulcer inducing agent aspirin, the rats were killed by cervical dislocation and their stomach were opened along the greater curvature and washed with luke warm saline and examined under a dissecting microscope. The ulcer index was calculated for each stomach. […] The antiulcer activity of the compounds was studied. The animals were divided into 19 groups of 6 animals each. Group 1 received the vehicle Tween 80 (1%, 1 ml) which served as the control. Group 2 received ranitidine at a dose of 50-mg/kg-body weight, which served as standard for comparison. […] Rats were administered per orally with a daily dose of the compounds and the drug ranitidine to respective groups for a period of five days and then fasted for 24 hours. The […] acetyl salicylic acid (aspirin) at a dose of 200 mg/kg body weight was administered as a suspension in tween-80 (1%), 30 min after the drug administration each day. All drugs were administered orally on ht […] day after the last administration of the drugs and the ulcer inducing agent aspirin, the rats were killed by cervical dislocation and their stomach were opened along the greater curvature and washed with luke warm saline and examined under a dissecting microscope.

Pylorus ligated rats = test: Pylorus ligated ulcers; conditions: 25 mg/kg, 4 hours after pylorus ligation; for inhibition at 25 mg/kg: Rattus norvegicus
Description: (§1) The compounds taken under study for antigastric ulcer screening by four different models were selected using experimental albino rats: • 1. Aspirin induced gastric ulceration • 2. Pylorus ligated gastric ulceration • 3. Ethanol induced gastric ulceration • 4. Stress induced gastric ulceration
(§2) The commercially available drug ranitidine (sigma), Omeprazole (sigma) and sucralfate (Merck) were used as reference standard in experimental models. The Tween-80 (SD fine chemicals) was used as vehicle for the administration of the drug, which is used as control.
The animals were divided into 19 groups of 6 animals each. Animals were deprived of food for 48 hours but had free access to water. Group 1 received the vehicle Tween 80 (1%, 1 ml) which served as the control. Group 2 received ranitidine at a dose of 50-mg/kg-body weight, which served as standard for comparison. […] After one hour of administration of drug the stomach was ligated at the pylorus under ether anesthesia. 4 hours after pylorus ligation, the animals were sacrificed and the contents drained and centrifuges at 5000 rpm for 10 minutes. Aliquots of supernatant were used for determination of total acid by titrating with 0.01N NaOH using topfers reagent and phenolphthalein indicators. 4.
The animals were divided into 7 groups of 6 animals each. Animals were deprived of food for 48 hours but had free access to water. Group 1 received the vehicle Tween 80 (1%, 1 ml) which served as the control. Group 2 received ranitidine at a dose of 50-mg/kg-body weight, which served as standard for comparison. Group 3 to 7 received at a dose of 50, 25, 15, 10 and 5 mg/kg body weight respectively. After one hour of administration of drug the stomach was ligated at the pylorus under ether anesthesia. 4 hours after pylorus ligation, the animals were sacrificed and the contents drained and centrifuges at 5000 rpm for 10 minutes. Aliquots of supernatant were used for determination of total acid by titrating with 0.01N NaOH using topfers reagent and phenolphthalein indicators.

[2] = test system: gastric ulceration in cold restraint rats; test: Cold restraint (stress) induced ulcers; parameters: Ulcer index Mean(SE): scale not given here; conditions: for inhibition at 25 mg/kg: po; for inhibition at 25 mg/kg / Ulcer index Mean(SE): rats, 4° C. for 2 hours
Description: as §1, §2
(§3) The antiulcer activity of the compounds was studied. The animals were divided into 21 groups of 7 animals each. Group 1 received the vehicle Tween 80 (1%, 1 ml) which served as the control. Group 2 received ranitidine at a dose of 50-mg/kg body weight, which served as standard for comparison. Group 3 to 21 at a dose of 25 mg/kg body weight. Animals were deprived of food 48 hours before the experiment. The water was allowed for free access. Rats were administered per orally with compounds and the drug ranitidine. The water was removed 1 hour before restraint and exposed to a temperature of 4° C. for 2 hours. Two hours after stress, the animals were sacrificed. The stressed animals were opened along the greater curvature and the severity of gastric ulcer was assessed in terms of mean ulcer index. 2.
as §3, with “8” for “21”, “6” for “7”, “50, 25, 15, 10 and 5” for “25”, “weight respectively.” for “weight.”, “index.” for “index. 2.”

[3] = test system: ethanol induced gastric ulcers; test: Ethanol induced ulcers; conditions: rats, ethanol challenge; for Acidity Total mEg / Gastric content / pH: 4 hours after pylorus ligation
Experimental: Stress induced gastric ulceration The commercially available drug ranitidine (sigma), Omeprazole (sigma) and sucralfate (Merck) were used as reference standard in experimental models. The Tween-80 (SD fine chemicals) was used as vehicle for the administration of the drug, which is used as control. The animals were divided into 22 groups of 6 animals each. Animals were deprived of food for 48 hours but had free access to water. Group 1 received the vehicle Tween 80 (1%, 1 ml) which served as the control. Group 2 received ranitidine at a dose of 50-mg/kg-body weight, which served as standard for comparison. Group 3 to received Omeprazole at a dose of 30-mg/kg body weight, which served as standard for comparison. Group 4 received sucralfate at a dose of 400-mg/kg body weight, which served as standard for comparison. Group 5 to 22 received at a dose of 25 mg/kg body weight. Lesions were induced 1 hour after ethanol challenge animals. The stomach was ligated at the pylorus under ether anesthesia. 4 hours after pylorus ligation, the animals were sacrificed and the contents drained and centrifuges at 5000 rpm for 10 minutes. Aliquots of supernatant were used for determination of total acid by titrating with 0.01N NaOH using topfers reagent and phenolphthalein indicators. […] The animals were divided into 9 groups of 6 animals each. Animals were deprived of food for 48 hours but had free access to water. Group 1 received the vehicle Tween 80 (1%, 1 ml) which served as the control. Group 2 received ranitidine at a dose of 50-mg/kg-body weight, which served as standard for comparison. Group 3 to received Omeprazole at a dose of 30-mg/kg body weight, which served as standard for comparison. Group 4 received sucralfate at a dose of 400-mg/kg body weight, which served as standard for comparison. […] Lesions were induced 1 hour after ethanol challenge animals. The stomach was ligated at the pylorus under ether anesthesia. 4 hours after pylorus ligation, the animals were sacrificed and the contents drained and centrifuges at 5000 rpm for 10 minutes. Aliquots of supernatant were used for determination of total acid by titrating with 0.01N NaOH using topfers reagent and phenolphthalein indicators.

[4] = Rattus norvegicus, 25 mg/kg per orally

Compound | inhibition at 25 mg/kg [1] [%] | Ulcer index Mean(SE) [1] | Acidity Total mEg (Pylorus ligated rats) | Gastric content (Pylorus ligated rats) | Ulcer index Mean(SE) (Pylorus ligated rats) | pH (Pylorus ligated rats) | inhibition at 25 mg/kg (Pylorus ligated rats) [%] | inhibition at 25 mg/kg [2, 4] [%] | Ulcer index Mean(SE) ([2]; 25 mg/kg per orally) | inhibition at 25 mg/kg ([3]; Rattus norvegicus, 25 mg/kg) [%] | Ulcer index Mean(SE) ([3]; 25 mg/kg) | Acidity Total mEg ([3]; 25 mg/kg) | Gastric content ([3]; 25 mg/kg) | pH ([3]; 25 mg/kg) | further results
O=c1cc(-c2ccccc2)oc2cc(O)c(O)c(O)c12 [Baicalein, 5,6,7-trihydroxy-2-phenyl-chromen-4-one] | 9.51 | 40.83 | 49.21 (±2.20) m Eg | 2.00 (±0.22) | 40.66 (±5.50) | 3.01 (±0.30) | 18.9 | 3.52 | 29.28 | 20 | 43.33 (±3.33) | 45.21 (±3.10) mEg | 3.5 (±0.20) | 3.33 (±0.10) | 
O=c1cc(-c2ccccc2)oc2cc(OC3OC(CO)C(O)C(O)C3O)cc(O)c12 (stereo not drawn) [CG, 5-Hydroxy-2-phenyl-7-(3,4,5-trihydroxy-6-hydroxymethyl-tetrahydro-pyran-2-yloxy)-chromen-4-one] | 52 | 21.66 | 44.33 (±2.33) m Eg | 1.50 (±0.28) | 24.93 (±1.66) | 3.50 (±0.28) | 50.2 | 47.7 | 21.00 | 52.5 | 31.66 (±4.41) | 20.01 (±4.41) mEg | 5.90 (±0.49) | 5.90 (±0.49) | 
O=c1cc(-c2ccccc2)oc2cc(OCCCN3CCOCC3)cc(O)c12 [CHM-2, 5-Hydroxy-7-(3-morpholin-4-yl-propoxy)-2-phenyl chromen-4-one] | 55.6 | 19.99 | 41.48 (±3.20) m Eg | 1.88 (±0.62) | 25.82 (±2.00) | 3.79 (±0.20) | 48.5 | 35.1 | 26.42 | 25 | 40.11 (±3.65) | 38.28 (±2.24) mEg | 2.8 (±0.72) | 4.00 (±0.18) | 
O=c1cc(-c2ccccc2)oc2cc(OCCCCN3CCOCC3)cc(O)c12 [CHM-3, 5-Hydroxy-7-(4-morpholin-4-yl-butoxy)-2-phenyl chromen-4-one] | 51.7 | 21.77 | 44.10 (±2.20) m Eg | 2.24 (±0.22) | 27.46 (±3.00) | 3.41 (±0.16) | 45.2 | 52.6 | 19.28 | 36.2 | 42.50 (±3.81) | 37.10 (±0.60) mEg | 3.8 (±0.30) | 4.16 (±0.12) | 
CN(C)CCCOc1cc(O)c2c(=O)cc(-c3ccccc3)oc2c1 [CHN-2, 7-(3-Dimethylamino-propoxy)-5-hydroxy-2-phenyl chromen-4-one] | 55.7 | 20.00 | 37.18 (±4.20) m Eg | 1.80 (±0.46) | 20.83 (±2.00) | 4.25 (±0.09) | 58.4 | 56.1 | 17.85 | 42.5 | 38.33 (±3.07) | 28.10 (±0.48) mEg | 3.2 (±0.42) | 5.14 (±0.36) | 
CN1C(=O)CN=C(c2ccccc2)c2cc(Cl)ccc21 [Diazepam, reference compound] |  |  |  |  |  |  |  |  |  |  |  |  |  |  | inhibition at 1 mg/kg ([2]; Rattus norvegicus, 2 h): 75.4%; Ulcer index Mean(SE) ([2]; 1 mg/kg): 10.00
COc1ccc2[nH]c([S+]([O-])Cc3ncc(C)c(OC)c3C)nc2c1 (stereo not drawn) [Omeprazole, reference compound] |  |  |  |  |  |  |  |  |  |  |  |  |  |  | inhibition at 30 mg/kg ([3]; Rattus norvegicus, 30 mg/kg): 67.5%; Ulcer index Mean(SE) ([3]; 30 mg/kg): 23.33 (±2.21); Gastric content ([3]; 30 mg/kg): 3.5 (±0.68); pH ([3]; 30 mg/kg): 4.65 (±0.19)
sucralfate [reference compound] |  |  |  |  |  |  |  |  |  |  |  |  |  |  | Inhibition % ([3]; 400 mg/kg): 87.50%; Ulcer index Mean(SE) ([3]; 400 mg/kg): 08.33 (±2.23); Acidity Total mEg ([3]; 400 mg/kg): 58.00 (±2.30) mEg; Gastric content ([3]; 400 mg/kg): 3.01 (±0.48) and 3.0 (±0.48); pH ([3]; 400 mg/kg): 3.00 (±0.19)
